From patent publication US8329862B1, “Cell-killing peptide derived from the C-terminus of NOXA protein” (Chosun University, priority 2004, dated 2012)
No end group written: not given here.

How the values were obtained:
Type in all cases: cell-based
[1] = test system: HeLa cell, a cervical cancer cell line; assay: Cell-killing effect on HeLa cells, crystal violet staining of attached living cells; details: for cell-killing activity compared with CKP peptide: procedure of Example 2, FIG. 6; for cell-killing activity: procedure of Example 2, crystal violet
Description: In order to examine the cell-killing effect of CKP peptide synthesized in Example 1, HeLa cell, a cervical cancer cell line was adopted and cultivated. The culture medium was replaced with experimental media containing CKP peptide solution in 0, 1, 5, 10, 15, 20, 30, 40 μM of concentration serially and cultivated for more 24 hours. In order to observe living cells attached on the surface, the resulting cells were stained for 10 minutes by using 100 μl of 0.5% crystal violet and then, washed out by using distilled water and running water to be de-stained, while discarding cells floating on the culture medium. Then, cells were observed by photography after placing culture vessel under a fluorescent lamp box as depicted in FIG. 3. At this moment, living cells attached on the surface appeared blue color since they were stained by crystal violet.

HeLa cell lines = assay: Time-lapse video capture microscopy of HeLa cell death; details: for morphology of dead HeLa cells: CKP at 23 minutes and 20 seconds, TRAIL at 5 hours and 30 minutes, FIG. 8
Description: In order to analyze the action mode of CKP peptide of the present invention, several substances that are known to kill cells were adopted to compare the cell-killing effects. Above all, CKP peptide (10 μM), TRAIL (100 ng/ml) and Cisplatin (100 μg/ml) were treated to HeLa cell lines and observed under time-lapse video capture microscopy (Leica, Model: DMIRBE, Germany) in some time-interval (for CKP peptide, 20 seconds; TRAIL, 40 seconds; Cisplatin, 3 minutes) for 1 hour and 40 minutes, 3 hours and 30 minutes, 8 hours and 48 hours respectively. Then, the results were photographed to 40× by using FW4000 software. FIG. 7 depicts HeLa cells serially at each time interval. As a result, it is observed that the cell death caused by TRAIL started at about 1 hour and 30 minutes after treatment and reached the maximum level at about 8 hours. To the contrary, HeLa cell started to die at about 10 minutes after treating CKP peptide and most of HeLa cells have died even at 23 minutes and 20 seconds.

[2] = test system: HeLa cell, a cervical cancer cell line; assay: Relative survival ratio of HeLa cells, counted from time-lapse microscopy; details: 1 hour
Description: In order to measure the strength of CKP peptide, several substances that are known to kill cells were adopted to compare the cell-killing effects. HeLa cell, a cervical cancer cell line was cultivated and treated with CKP peptide, TRAIL and Cisplatin to 30 μM, 100 ng/ml and 100 μg/ml respectively for 1 hour. After that, the resulting cells were observed under time-lapse video capture microscopy (Leica, Model: DMI RBE, Germany) in 20 seconds of time-interval for 1 hour by the procedure described in Example 5, photographed to 40×, counted for the numbers of living cells and dead cells and then, estimated the relative survival ratio in a graph. […] As a consequence, it is clarified that CKP peptide of the present invention had the strongest cell-killing effect about 9-fold more than TRAIL or Cisplatin.

[3] = test system: HeLa cell, a cervical cancer cell line; assay: Cell-killing effect on HeLa cells, crystal violet staining of attached living cells; details: pan-caspase inhibitor z-VAD-fmk in culture media, FIG. 11

CKP 2: SEQ ID NO: 5 (RRRRRRRRGRQKALNLISKLF), substituted in one residue (fusion protein)
cell-killing activity compared with CKP peptide [1]: decreased the cell-killing activity slightly

PTD domain without CKP domain: only PTD domain without CKP domain, synthesized as in Example 1 (RRRRRRRRG; protein transduction domain) [reference compound]
cell-killing activity [1]: not detected at all

CKP 8: SEQ ID NO: 11 (RRRRRRRRGRQKLLNLISKAF), 9th leucine substituted to alanine (Fusion protein)
cell-killing activity compared with CKP peptide [1]: decreased the cell-killing activity remarkably

CKP 6: SEQ ID NO: 9 (RRRRRRRRGRQKAANLISKLF), 2nd and 3rd leucines substituted to alanine (Fusion protein)
cell-killing activity compared with CKP peptide [1]: decreased the cell-killing activity remarkably

CKP 3: SEQ ID NO: 6 (RRRRRRRRGRQKLAALISKLF), substituted in two residues (fusion protein)
cell-killing activity compared with CKP peptide [1]: decreased the cell-killing activity slightly

Bid(mt)BH3CKP: fusion protein combining CKP peptide with mutant BidBH3 deleting the active site of BH3 domain, SEQ ID NO: 13 (RRRRRRRRGNIARHLAQVADSMDRRQKLLNLISKLF; Fusion protein)
cell-killing activity [1]: had the cell-killing activity

CKP 7: SEQ ID NO: 10 (RRRRRRRRGRQKLLNAISKLF), 5th leucine substituted to alanine (Fusion protein)
cell-killing activity compared with CKP peptide [1]: decreased the cell-killing activity remarkably

CKP 5: SEQ ID NO: 8 (RRRRRRRRGRQKALNLIAALF), substituted in three residues (fusion protein)
cell-killing activity compared with CKP peptide [1]: decreased the cell-killing activity slightly

RRRRRRRRGRQKLLNLISKLF [CKP peptide]
concentration from which cell-killing activity is seen ([1]; 0-40 μM, 24 hours, crystal violet, FIG. 3): ≥ 10 µM | cell-killing activity [1]: became strong remarkably | morphology of dead HeLa cells (HeLa cell lines): several cell membranes like balloon | time at which HeLa cells started to die after treatment (HeLa cell lines; CKP peptide 10 μM): about 10 minutes | cell-killing effect relative to TRAIL or Cisplatin [2]: about 9 fold

BidBH3CKP: fusion protein that combines CKP peptide with BidBH3 peptide, SEQ ID NO: 12 (RRRRRRRRGNIARHLAQVGDSMDRRQKLLNLISKLF; Fusion protein)
cell-killing activity relative to BidBH3 peptide ([1]; procedure of Example 2): 2 fold | difference of cell-killing activity with or without z-VAD-fmk [3]: not significant difference

CKP 4: SEQ ID NO: 7 (RRRRRRRRGRQKLLNLIAALF), substituted in two residues (fusion protein)
cell-killing activity compared with CKP peptide [1]: outstanding rather than CKP peptide

B1: TRAIL (protein, UniProt P50591 1-281, looked up)
Tumor necrosis factor ligand …: MAMMEVQGGPSLGQTCVLIVIFTVLLQSLCVAVTYVYFTNELKQMQDKYSKSGIACFLKEDDSYWDPNDEESMNSPCWQVKWQLRQLVRKMILRTSEETISTVQEKQQNISPLVRERGPQRVAAHITGTRGRSNTLSSPNSKNEKALGRKINSWESSRSGHSFLSNLHLRNGELVIHEKGFYYIYSQTYFRFQEEIKENTKNDKQMVQYIYKYTSYPDPILLMKSARNSCWSKDAEYGLYSIYQGGIFELKENDRIFVSVTNEHLIDMDHEASFFGAFLVG
notes: substance known to kill cells, used as comparator
morphology of dead HeLa cells (HeLa cell lines): not to have cell membrane like balloon | time at which cell death reached the maximum level (HeLa cell lines; TRAIL 100 ng/ml): about 8 hours
